Here are results for 43 compounds from patent publication US20130096119A1, “Isoquinolin-3-Ylurea Derivatives” (priority 2010, published 2013).

The experiment deals with S. pneumoniae ATCC 49619. As to the kind of experiment: Minimal inhibitory concentration (MIC) by microdilution method (CLSI M7-A7). The class given is cell-based, Streptococcus pneumoniae. Conditions: for MIC: Streptococcus pneumoniae, ATCC49619, cation-adjusted Mueller-Hinton Broth supplemented with 3% (v/v) lysed horse blood. In short, it runs like this:
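For S. pneumoniae, cation-adjusted Mueller-Hinton broth carried 3% (v/v) lysed horse blood; MICs (mg/l) were read by CLSI M7-A7 microdilution.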
Background: Dilution methods test growth across graded concentrations, often in twofold steps.

As usually defined, the MIC is the smallest concentration in the dilution series that meets the test's criterion for growth inhibition. A lower MIC goes with inhibition by little substance.

Values after ≈ are worked out from the molar mass of the structure shown.

`CCNC(=O)Nc1cc2cc(-c3cccnc3)cc(C)c2cn1` [Example 16, 1-ethyl-3-(8-methyl-6-pyridin-3-yl-isoquinolin-3-yl)-urea] yielded an MIC of 2 µg/mL (≈ 6.53 µM).

For `CCNC(=O)Nc1cc2cccc(Cn3ccnc3C)c2cn1` [Example 297, 1-ethyl-3-[8-(2-methyl-imidazol-1-ylmethyl)-isoquinolin-3-yl]-urea], the lowest concentration to inhibit growth (MIC) was 4 µg/mL (≈ 12.9 µM).

As for `CCNC(=O)Nc1cc2c(-c3cccc(NC(C)=O)c3)ccc(C)c2cn1` [Example 4, N-{3-[3-(3-ethyl-ureido)-8-methyl-isoquinolin-5-yl]-phenyl}-acetamide], the MIC stood at 8 µg/mL (≈ 22.1 µM).

The compound `CCNC(=O)Nc1cc2cccc(Nc3cccc(C(=O)OC)c3)c2cn1` [Example 176, 3-[3-(3-ethyl-ureido)-isoquinolin-8-ylamino]-benzoic acid methyl ester] displayed an MIC of 2 µg/mL (≈ 5.49 µM).

The compound `CCNC(=O)Nc1cc2c(-c3ccncc3)ccc(Nc3cccc(C(=O)OC)c3)c2cn1` [Example 220, 3-[3-(3-ethyl-ureido)-5-pyridin-4-yl-isoquinolin-8-ylamino]-benzoic acid methyl ester] had an MIC of 16 µg/mL (≈ 36.2 µM).

The compound `CCNC(=O)Nc1cc2cccc(Nc3ccc(C(=O)NC)cc3)c2cn1.Cl` [Example 204, 4-[3-(3-ethyl-ureido)-isoquinolin-8-ylamino]-N-methyl-benzamide hydrochloride] returned an MIC of 2 µg/mL.

`CCNC(=O)Nc1cc2cccc(Nc3ccncc3F)c2cn1.Cl` [Example 157, 1-ethyl-3-[8-(3-fluoro-pyridin-4-ylamino)-isoquinolin-3-yl]-urea hydrochloride] came in with an MIC of 2 µg/mL.

In turn, `CCNC(=O)Nc1cc2cc(-c3ccoc3)cc(C)c2cn1` [Example 14, 1-ethyl-3-(6-furan-3-yl-8-methyl-isoquinolin-3-yl)-urea] showed an MIC of 4 µg/mL (≈ 13.5 µM).

Compound `CCNC(=O)Nc1cc2c(-c3cccc(CN)c3)ccc(Nc3cccnc3)c2cn1` [Example 232, 1-(5-(3-(aminomethyl)phenyl)-8-(pyridin-3-ylamino)isoquinolin-3-yl)-3-ethylurea] had an MIC of 2 µg/mL (≈ 4.85 µM).

As for `CCNC(=O)Nc1cc2cccc(Cn3cc(C)cn3)c2cn1` [Example 300, 1-ethyl-3-[8-(4-methyl-pyrazol-1-ylmethyl)-isoquinolin-3-yl]-urea], 4 µg/mL (≈ 12.9 µM) was the least that counted as inhibitory (MIC).

On to `CCNC(=O)Nc1cc2c(-c3ccc(S(N)(=O)=O)cc3)ccc(C)c2cn1` [Example 35, 4-[3-(3-ethyl-ureido)-8-methyl-isoquinolin-5-yl]-benzenesulfonamide], for which the MIC came to 0.5 µg/mL (≈ 1.3 µM).

Compound `CCNC(=O)Nc1cc2c(F)c(-c3cncc(C)c3)cc(C)c2cn1` [Example 141, 1-ethyl-3-[5-fluoro-8-methyl-6-(5-methylpyridin-3-yl)isoquinolin-3-yl]-urea] gave an MIC of 0.5 µg/mL (≈ 1.48 µM).

`CCNC(=O)Nc1cc2c(F)ccc(Br)c2cn1` [Example 32, 1-(8-bromo-5-fluoro-isoquinolin-3-yl)-3-ethyl-urea] showed an MIC of 16 µg/mL (≈ 51.3 µM).

As for `CCNC(=O)Nc1cc2cccc(Nc3cccc(C(=O)O)c3)c2cn1` [Example 198, 3-[3-(3-ethyl-ureido)-isoquinolin-8-ylamino]-benzoic acid], the MIC was 1 µg/mL (≈ 2.85 µM).

Regarding `CCNC(=O)Nc1cc2c(F)ccc(-c3cccnc3)c2cn1` [Example 215, 1-ethyl-3-(5-fluoro-8-pyridin-3-yl-isoquinolin-3-yl)-urea], it took 16 µg/mL (≈ 51.6 µM) to inhibit growth (MIC).

Consider `CCNC(=O)Nc1cc2c(-c3ccnnc3)ccc(C)c2cn1` [Example 279, 1-ethyl-3-(8-methyl-5-pyridazin-4-yl-isoquinolin-3-yl)-urea], for which the minimal inhibitory concentration (MIC) was determined as 1 µg/mL (≈ 3.25 µM).

The compound `CCNC(=O)Nc1cc2cc(-c3ccco3)cc(C)c2cn1` [Example 78, 1-ethyl-3-(6-furan-2-yl-8-methyl-isoquinolin-3-yl)-urea] returned a minimum inhibitory concentration (MIC) of 2 µg/mL (≈ 6.77 µM).

In the case of `CCNC(=O)Nc1cc2cccc(Nc3ccc(C(N)=O)cn3)c2cn1.Cl` [Example 156, 6-[3-(3-ethyl-ureido)-isoquinolin-8-ylamino]-nicotinamide hydrochloride], the minimal inhibitory concentration (MIC) was determined as 2 µg/mL.

Regarding `CCNC(=O)Nc1cc2cccc(CNc3cc(C)ns3)c2cn1` [Example 192, 1-ethyl-3-{8-[(3-methyl-isothiazol-5-ylamino)-methyl]-isoquinolin-3-yl}-urea], the MIC stood at 2 µg/mL (≈ 5.86 µM).

As to `Cc1ccc(-c2ccncc2)c2cc(NC(=O)NCCF)ncc12` [Example 138, 1-(2-fluoro-ethyl)-3-(8-methyl-5-pyridin-4-yl-isoquinolin-3-yl)-urea], the MIC was 1 µg/mL (≈ 3.08 µM).

As for `CCNC(=O)Nc1cc2cccc(CNc3ncccn3)c2cn1` [Example 304, 1-ethyl-3-[8-(pyrimidin-2-ylaminomethyl)-isoquinolin-3-yl]-urea], the MIC stood at 4 µg/mL (≈ 12.4 µM).

As for `CCNC(=O)Nc1cc2cccc(Nc3cncc(OC)c3)c2cn1` [Example 177, 1-ethyl-3-[8-(5-methoxy-pyridin-3-ylamino)-isoquinolin-3-yl]-urea], the MIC was found to be 2 µg/mL (≈ 5.93 µM).

Take `CCNC(=O)Nc1cc2cc(NCc3ccc(-n4cnc(C)n4)cc3)cc(C)c2cn1.Cl` [Example 131, 1-ethyl-3-{8-methyl-6-[4-(3-methyl-[1,2,4]triazol-1-yl)-benzylamino]-isoquinolin-3-yl}-urea hydrochloride]: the MIC is 4 µg/mL.

`CCNC(=O)Nc1cc2c(F)c(-c3cncc(C)c3)cc(Nc3cccnc3)c2cn1` [Example 235, 1-ethyl-3-[5-fluoro-6-(5-methyl-pyridin-3-yl)-8-(pyridin-3-ylamino)-isoquinolin-3-yl]urea] showed an MIC of 0.25 µg/mL (≈ 0.6 µM).

The compound `CCNC(=O)Nc1cc2cc(NC(=O)COC)cc(C)c2cn1` [Example 195, N-[3-(3-ethyl-ureido)-8-methyl-isoquinolin-6-yl]-2-methoxy-acetamide] yielded an MIC of 4 µg/mL (≈ 12.6 µM).

The compound `CCNC(=O)Nc1cc2cc(NCc3ccc4cc[nH]c4c3)cc(C)c2cn1.Cl` [Example 134, 1-ethyl-3-{6-[(1H-indol-6-ylmethyl)-amino]-8-methyl-isoquinolin-3-yl}-urea hydrochloride] returned an MIC of 16 µg/mL.

For the compound `CCNC(=O)Nc1cc2c(-c3cccnc3)ccc(Nc3cccnc3)c2cn1` [Example 224, 1-ethyl-3-[5-pyridin-3-yl-8-(pyridin-3-ylamino)-isoquinolin-3-yl]-urea], 0.5 µg/mL (≈ 1.3 µM) was the least that counted as inhibitory (MIC).

In the case of `CCNC(=O)Nc1cc2c(-c3cccc(CO)c3)ccc(C)c2cn1` [Example 12, 1-ethyl-3-[5-(3-hydroxymethyl-phenyl)-8-methyl-isoquinolin-3-yl]-urea], 8 µg/mL (≈ 23.9 µM) was the least that counted as inhibitory (MIC).

With `CCNC(=O)Nc1cc2c(-c3cc(C)nc(C)c3)ccc(Nc3cccnc3)c2cn1` [Example 231, 1-[5-(2,6-dimethyl-pyridin-4-yl)-8-(pyridin-3-ylamino)-isoquinolin-3-yl]-3-ethyl-urea], the lowest concentration to inhibit growth (MIC) was 0.5 µg/mL (≈ 1.21 µM).

`CCNC(=O)Nc1cc2c(CN(C)C)ccc(Nc3cccc(OC)n3)c2cn1` [Example 273, 1-{5-[(dimethylamino)methyl]-8-[(6-methoxy-pyridin-2-yl)amino]-isoquinolin-3-yl}-3-ethyl-urea] registered an MIC of 4 µg/mL (≈ 10.1 µM).

`CCNC(=O)Nc1cc2c(F)c(-c3cccnc3)cc(C)c2cn1` [Example 47, 1-ethyl-3-(5-fluoro-8-methyl-6-pyridin-3-yl-isoquinolin-3-yl)-urea] displayed an MIC of 2 µg/mL (≈ 6.17 µM).

`CCNC(=O)Nc1cc2c(-c3cscc3C)ccc(C)c2cn1` [Example 64, 1-ethyl-3-[8-methyl-5-(4-methyl-thiophen-3-yl)-isoquinolin-3-yl]-urea]: the minimum inhibitory concentration (MIC) was determined as 1 µg/mL (≈ 3.07 µM).

Turning to `CCCNc1cc(Nc2cccnc2)c2cnc(NC(=O)NCC)cc2c1` [Example 238, 1-ethyl-3-[6-propylamino-8-(pyridin-3-ylamino)-isoquinolin-3-yl]-urea], the MIC is 0.5 µg/mL (≈ 1.37 µM).

The compound `CCNC(=O)Nc1cc2c(F)ccc(-c3ccc(C(=O)O)cc3)c2cn1` [Example 74, 4-[3-(3-ethyl-ureido)-5-fluoro-isoquinolin-8-yl]-benzoic acid] displayed an MIC of 2 µg/mL (≈ 5.66 µM).

`CCNC(=O)Nc1cc2c(-c3ccncn3)ccc(C)c2cn1` [Example 278, 1-ethyl-3-(8-methyl-5-pyrimidin-4-yl-isoquinolin-3-yl)-urea] yielded an MIC of 2 µg/mL (≈ 6.51 µM).

For `CCNC(=O)Nc1cc2c(F)c(NCc3ccccc3)cc(Nc3cccnc3)c2cn1` [Example 240, 1-[6-benzylamino-5-fluoro-8-(pyridin-3-ylamino)-isoquinolin-3-yl]-3-ethyl-urea], the MIC is 2 µg/mL (≈ 4.65 µM).

As for `CCNC(=O)Nc1cc2c(-c3ccncc3)ccc(Oc3cccnc3)c2cn1` [Example 222, 1-ethyl-3-[5-pyridin-4-yl-8-(pyridin-3-yloxy)-isoquinolin-3-yl]-urea], the MIC came to 1 µg/mL (≈ 2.59 µM).

`CCNC(=O)Nc1cc2cc(-c3ccc(C(=O)N(C)C)cc3)cc(C)c2cn1` [Example 24, 4-[3-(3-ethyl-ureido)-8-methyl-isoquinolin-6-yl]-N,N-dimethyl-benzamide] registered an MIC of 0.25 µg/mL (≈ 0.664 µM).

With “1-ethyl-3-[8-(5-hydroxymethyl-imidazol-1-ylmethyl)-isoquinolin-3-yl]-urea and 1-ethyl-3-[8-(4-hydroxymethyl-imidazol-1-ylmethyl)-isoquinolin-3-yl]-urea [Example 293]”, the “MIC for S. pneumoniae ATCC 49619” value (cation-adjusted Mueller-Hinton Broth supplemented with 3% (v/v) lysed horse blood) was found to be 4 µg/mL.

For the compound `CCNC(=O)Nc1cc2c(-c3cccc(O)c3)ccc(C)c2cn1` [Example 68, 1-ethyl-3-[5-(3-hydroxy-phenyl)-8-methyl-isoquinolin-3-yl]-urea], the lowest concentration to inhibit growth (MIC) was 4 µg/mL (≈ 12.4 µM).

Compound `CCNC(=O)Nc1cc2c(-c3cscn3)ccc(C)c2cn1.Cl` [Example 285, 1-ethyl-3-(8-methyl-5-thiazol-4-yl-isoquinolin-3-yl)-urea hydrochloride] gave an MIC of 2 µg/mL.

For the compound `CCNC(=O)Nc1cc2cccc(Nc3ccc(C(=O)OC)cn3)c2cn1.Cl` [Example 165, 6-[3-(3-ethyl-ureido)-isoquinolin-8-ylamino]-nicotinic acid methyl ester hydrochloride], it took 4 µg/mL to inhibit growth (MIC).

As for `CCNC(=O)Nc1cc2cccc(COc3ccncc3C(=O)OC)c2cn1.Cl` [Example 212, 4-[3-(3-ethyl-ureido)-isoquinolin-8-ylmethoxy]-nicotinic acid methyl ester hydrochloride], the minimum inhibitory concentration (MIC) was determined as 8 µg/mL.
